Results from US20160369307A1, “METHOD OF INCREASING BIOMASS AND LIPID CONTENT IN A MICRO-ORGANISM AND A GENETICALLY MODIFIED MICRO-ORGANISM EXHIBITING ENHANCED AUTOPHAGY” (RELIANCE INDUSTRIES LIMITED, priority 2014, published 2016).
Where a SMILES comes first, the peptide text is derived from it. The star is where a group is joined. Cbz = O=C(OCc1ccccc1)*; CH2F = FC*

Legend:
Chlorella sorokiniana [1] = assay: Cell count of Chlorella sorokiniana under salinity stress with LiCl; format: cell-based; conditions: for Cell Density at Day 0: Day 0, day of salinity exposure (baseline); for Cell Density at Day 4: Day 4 of salinity stress
Procedure: 5mM LiCl was added to the TAP medium in the Experimental plates, but not in the Control. […]
Thus, it can be concluded that even in environmental stress conditions like exposure to salinity, treatment of the algal cells with LiCl prevents cll death, increases the biomass and lipid content of the algal cells, and concomitantly yields an increased amount of commercially valuable products like oils which are known to be produced by the algal cells.

Chlorella sorokiniana [2] = assay: Recovery of Chlorella sorokiniana cultures after UV exposure with z-vad-fmk; format: cell-based
Procedure: 1×10^6 cells/ml of Chlorella sorokiniana were grown for three days in Tris-Acetate-Phosphate (TAP) medium and then exposed to UV at 250000 μJ/cm^2 for one minute using CL-1000 UV crosslinker. Immediately after UV exposure, 25 μM Z-vad-fmk was added to the TAP medium. The cultures were kept in the dark for 24 hours. Cultures were then exposed to light of 2000 lux for 12 hours followed by 12 hours of darkness.
FIG. 1B graphically represents the optical density at 750 nm of the Control cultures versus the optical density of the cultures treated with z-vad-fmk on the 13th day after UV exposure. From these figures it is clear that z-vad-fmk induced autophagy in the Chlorella sorokiniana cells helping the cells to recover from UV exposure. […] Thus, it can be concluded that even in environmental stress conditions like exposure to UV, treatment of the algal cells with z-vad-fmk prevents cell death, increases the biomass and lipid content of the algal cells, and concomitantly yields an increased amount of commercially valuable products like oils which are known to be produced by the algal cells.

[3] = TAP + 0.6% Salinity + 5 mM LiCl
[4] = TAP + 1.2% Salinity + 5 mM LiCl

| SMILES | Cell counts versus Control after salinity stress (FIG. 2) (Chlorella sorokiniana [1]; 5 mM LiCl, after 4 days of salinity stress exposure) | Cell Density at Day 0 (Chlorella sorokiniana [1]; [3]) | Cell Density at Day 4 (Chlorella sorokiniana [1]; [3]) | Cell Density at Day 0 (Chlorella sorokiniana [1]; [4]) | Cell Density at Day 4 (Chlorella sorokiniana [1]; [4]) | Revival of bleached cultures after UV exposure (Chlorella sorokiniana [2]; 25 μM added to TAP medium immediately after UV 250000 μJ/cm^2 for one minute, 10 days) | Culture viability (plates, FIG. 1A) after UV exposure (Chlorella sorokiniana [2]; 25 μM, 13 days after UV exposure, versus Control plates) |
| --- | --- | --- | --- | --- | --- | --- | --- |
| [Cl-].[Li+] [LiCl] | higher cell counts | 2.6 × 10^6 cells/ml | 6.57 × 10^6 cells/ml | 2.6 × 10^6 cells/ml | 7.22 × 10^6 cells/ml |  |  |
| COC(=O)C[C@H](NC(=O)[C@H](C)NC(=O)[C@@H](NC(=O)OCc1ccccc1)C(C)C)C(=O)CF [z-vad-fmk] (Cbz-Val-Ala-Asp(OMe)-CH2F) |  |  |  |  |  | only z-vad-fmk treated cultures were seen to revive after 10 days | only the z-vad-fmk treated plates show viable cultures |
